# Data: patent publication US7947270B2, “Removing dental plaque with krill enzymes” (Arcimboldo AB, priority 1992, dated 2011)
# Where a SMILES comes first, the peptide text is derived from it.
# Assays:
# [1] = test system: krill-derived multifunctional hydrolase (Prep-8); assay: protease inhibitors against Prep-8 at pH 7.5; assay type: biochemical, antarctic krill
# Procedure: The effectiveness of other protease inhibitors against Prep-8 was tested in a 0.1 M Tris-HCl buffer pH 7.5. Benzoyl-val-gly-arg-p-nitroanilide (“ARG-p-NA”) and succinyl-ala-pro-phe-p-nitroanilide (Phe-pNA) were used as substrates.
# [2] = target: krill-derived multifunctional hydrolase (antarctic krill); assay: cell-based or functional assay
# Chain of krill-derived multifunctional hydrolase (antarctic krill) (P86599 1-25): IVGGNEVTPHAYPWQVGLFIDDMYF
# [3] = test system: krill-derived multifunctional hydrolase; assay: protease inhibitors at pH 9.5 against hydrolase preparations; assay type: biochemical, antarctic krill
# Procedure: The effectiveness of three protease inhibitors was tested at pH 9.5 against the three hydrolase preparations.
# [4] = test system: mice with s.c. implanted P388 murine leukemia; assay: toxicity on mice with P388 murine leukemia
# [5] = test system: mice with P388 murine leukemia; assay: Toxicity on mice with s.c. implanted P388 murine leukemia; assay type: in vivo; conditions: all mice in doxorubicin group except those receiving the lowest dosage
# [6] = test system: krill-derived multifunctional hydrolase (antarctic krill), Prep-3 (eluted at pH 3), SEQ ID NO. 1 (N-terminal sequence); assay: Km determination, krill-derived multifunctional hydrolase Prep-3; assay type: biochemical; conditions: 0.1 M CAPS buffer, 2 mM Ca++, pH 9.5
# Procedure: (§1) The krill-derived multifunctional hydrolase was purified by the protocol described above in Example 1C. Three preparations the krill-derived multifunctional hydrolase were prepared. The three preparations differed only in that the krill multifunctional hydrolase was eluted from the trypsin inhibitor gel with buffer at pH 3, pH 8, and pH 11, respectively. These preparations shall be termed “Prep-3,” “Prep-8,” and “Prep-11.” These preparations were dissolved in water to a concentration of 6 mg/ml.
# (§2) The SDS bands were electroblotted onto PVDF membranes and sequenced through 25 cycles of Edman degradation. See, Matsudaira, J. Biol. Chem., 262: 10035-10038, 1987. […] Accordingly, it is clear that all three preparations are homogenous, although each is micro-heterogeneous at position 5. The proteolytic activity of each of the three preparations was tested against substrate benzoyl-val-gly-arg-p-nitroaniline. Hydrolysis of this substrate can be monitored at […], reflecting the release of p-nitroaniline. The profile for Prep-3 (shown with filled squares), Prep-8 (shown with open diamonds) and Prep-11 (shown with filled diamonds) are identical.
# [7] = test system: krill-derived multifunctional hydrolase (antarctic krill), Prep-11 (eluted at pH 11), SEQ ID NO. 1 (N-terminal sequence); assay: Km determination, krill-derived multifunctional hydrolase Prep-11; assay type: biochemical; conditions: 0.1 M CAPS buffer, 2 mM Ca++, pH 9.5
# Procedure: as §1, §2
# [8] = test system: krill-derived multifunctional hydrolase (antarctic krill), Prep-8 (eluted at pH 8), SEQ ID NO. 1 (N-terminal sequence); assay: Km determination, krill-derived multifunctional hydrolase Prep-8; assay type: biochemical; conditions: 0.1 M CAPS buffer, 2 mM Ca++, pH 9.5
# Procedure: as §1, §2
# HL60 cells = assay: in vitro binding of HL60 cells to endothelial cells; assay type: cell-based, human
# Procedure: Endothelial cells were first passaged onto 96 well plates at a given concentration. The endothelial cells used in the experiment are described in Edgell et al., Proc. Natl. Acad. Sci. USA (1983) 80:3734. The cells were incubated at 37° C. under a DMEM cell culture medium containing 10% fetal calf serum and under a 5% CO2 atmosphere. Then, the medium was removed and replaced with 100 μl of a suspension of 200,000 HL60 cells (a […], available from the European Cell Culture Bank under ECACC Accession No. 85011431) in RPMI medium containing 10% fetal calf serum. The cells were incubated for 30 minutes. After this, the medium was removed and the adherent cells were washed two times with DMEM medium. The relative adherence of the HL60 cells was measured by measuring the difference in optical density at 450 nm between the plates on which the cells were co-incubated and plates having endothelial cells alone.
# The effect of TNFα was measured by adding TNFα at 1500 units/ml to the endothelial cells 4 hours before the incubation with HL60 cells. The effect of antibody to E-selectin was measured by adding 25 μg/ml of monoclonal antibody BBAZ (R&D Systems Europe, Oxford, England) to the HL60 cells. The results of the experiments were: […]
# The number of HL60 cells was determined by subtracting the cell numbers for control plates having only endothelial cells. […]
# [9] = substrate Arg-pNA, inhibitor 10 μM, pH 7.5
# [10] = substrate Phe-pNA, inhibitor 10 μM, 0.1 M Tris-HCl pH 7.5
# [11] = Prep-11, pH 9.5, inhibitor 1 μM
# [12] = substrate Arg-pNA, inhibitor 0.2 μM, pH 7.5
# [13] = substrate Phe-pNA, inhibitor 0.2 μM, pH 7.5
# Chain of α-proteinase inhibitor (P01009 25-418): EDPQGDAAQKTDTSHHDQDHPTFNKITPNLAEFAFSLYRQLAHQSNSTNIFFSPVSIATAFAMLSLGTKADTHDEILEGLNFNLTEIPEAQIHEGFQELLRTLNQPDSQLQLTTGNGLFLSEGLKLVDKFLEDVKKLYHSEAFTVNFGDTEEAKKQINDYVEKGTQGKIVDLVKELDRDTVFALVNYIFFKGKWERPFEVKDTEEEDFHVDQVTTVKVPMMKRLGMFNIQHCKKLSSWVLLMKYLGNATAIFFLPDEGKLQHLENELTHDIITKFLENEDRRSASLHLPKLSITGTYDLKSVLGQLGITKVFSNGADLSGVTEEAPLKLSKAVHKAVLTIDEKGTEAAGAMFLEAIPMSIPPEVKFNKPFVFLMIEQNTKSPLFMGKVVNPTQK
molecule,measurement,setting,value
CC(C)C[C@H](NC(=O)N[C@H](C(=O)N[C@@H](CCC(N)=O)C(=O)N[C@@H](C)C=O)[C@@H]1CCNC(=N)N1)C(=O)O [Elastatinal],"Activity remaining, %",[1]; [9],100%
same,"Activity remaining, %",[1]; [10],100%
α-proteinase inhibitor,"Activity remaining, % of Prep-8 with 0.2 µM inhibitor, substrate Arg-pNA, pH 7.5 (% activity remaining)",[2],0
same,"Activity remaining, % of Prep-8 with 0.2 µM inhibitor, substrate Phe-pNA, pH 7.5 (% activity remaining)",[2],0
CC(C)C[C@H](NP(=O)(O)O[C@@H]1O[C@@H](C)[C@H](O)[C@@H](O)[C@H]1O)C(=O)N[C@@H](Cc1c[nH]c2ccccc12)C(=O)O [Phosphoramidon],"Activity remaining, %",[1]; [9],87%
same,"Activity remaining, %",[1]; [10],94%
CC(C)C[C@H](NC(=O)[C@@H](NC(=O)N[C@@H](Cc1ccccc1)C(=O)O)[C@@H]1CCN=C(N)N1)C(=O)N[C@H](C=O)Cc1ccccc1 [Chymostatin],% activity remaining,"[3]; Prep-3, pH 9.5, inhibitor 1 μM",0%
same,% activity remaining,"[3]; Prep-8, pH 9.5, inhibitor 1 μM",0%
same,% activity remaining,[3]; [11],0%
"COc1cccc2c1C(=O)c1c(O)c3c(c(O)c1C2=O)C[C@@](O)(C(=O)CO)C[C@@H]3O[C@H]1C[C@H](N)[C@H](O)[C@H](C)O1 [DOX, doxorubicin]",Toxic death,"[4]; 2.5 mg/kg i.p. daily, 9 consecutive days",6/6
same,death and weight loss (summary),[4]; all doses,"all mice in the doxorubicin group, except for those receiving the lowest dosage, lost weight and died"
same,weight loss and death of mice,[5],lost weight and died
Bovine pancreatic trypsin inhibitor,% activity remaining,"[3]; Prep-3, pH 9.5, inhibitor 1 μM",2%
same,% activity remaining,"[3]; Prep-8, pH 9.5, inhibitor 1 μM",1%
same,% activity remaining,[3]; [11],1%
CC(C)[C@H](NC(=O)c1ccccc1)C(=O)NCC(=O)N[C@@H](CCCNC(=N)N)C(=O)Nc1ccc([N+](=O)[O-])cc1 [benzoyl-pal-gly-arg-p-nitroanilide] (HELM PEPTIDE1{[O=C(c1ccccc1)[*:2]].V.G.R.[O=[N+]([O-])c1ccc(N[*:1])cc1]}$$$$V2.0),Km,[6],210 ± 8 µM
same,Km,[7],230 ± 13 µM
same,Km,[8],210 ± 8 µM
α-proteinase inhibitor: protease inhibitor,"Activity remaining, %",[1]; [12],0%
same,"Activity remaining, %",[1]; [13],0%
Eglin C fragment (peptide),"Activity remaining, % of Prep-8 with 8.4 µM inhibitor, substrate Phe-pNA, pH 7.5 (% activity remaining)",[2],100
C[C@H](NC(=O)CCC(=O)O)C(=O)N[C@@H](C)C(=O)N1CCC[C@H]1C(=O)N[C@@H](Cc1ccccc1)C(=O)Nc1ccc([N+](=O)[O-])cc1 [succinyl-ala-ala-pro-phe-p-nitroanilide] (HELM PEPTIDE1{[O=C(O)CCC(=O)[*:2]].A.A.P.F.[O=[N+]([O-])c1ccc(N[*:1])cc1]}$$$$V2.0),Km,[6],260 ± 50 µM
same,Km,[7],270 ± 40 µM
same,Km,[8],270 ± 50 µM
Anti-Thrombin III [listing 1 of 2 here],"Activity remaining, %",[1]; [12],4%
same,"Activity remaining, %",[1]; [13],2%
TNFα,HL60 cell number,HL60 cells; Expt 2: endothelial cells pretreated with TNFα,"43,990"
same,Absorbance (increase over endothelial cells alone),HL60 cells; Expt 2: endothelial cells pretreated with TNFα 1500 units/ml 4 hours,0.444
Anti-Thrombin III [listing 2 of 2 here],"Activity remaining, % of Prep-8 with 0.2 µM inhibitor, substrate Arg-pNA, pH 7.5 (% activity remaining)",[2],4
same,"Activity remaining, % of Prep-8 with 0.2 µM inhibitor, substrate Phe-pNA, pH 7.5 (% activity remaining)",[2],2
"α-anti-chymotrypsin (protein, UniProt P01011 24-423, looked up, species assumed) Alpha-1-antichymotrypsin: HPNSPLDEENLTQENQDRGTHVDLGLASANVDFAFSLYKQLVLKAPDKNVIFSPLSISTALAFLSLGAHNTTLTEILKGLKFNLTETSEAEIHQSFQHLLRTLNQSSDELQLSMGNAMFVKEQLSLLDRFTEDAKRLYGSEAFATDFQDSAAAKKLINDYVKNGTRGKITDLIKDLDSQTMMVLVNYIFFKAKWEMPFDPQDTHQSRFYLSKKKWVMVPMMSLHHLTIPYFRDEELSCTVVELKYTGNASALFILPDQDKMEEVEAMLLPETLKRWRDSLEFREIGELYLPKFSISRDYNLNDILLQLGIEEAFTSKADLSGITGARNLAVSQVVHKAVLDVFEEGTEASAATAVKITLLSALVETRTIVRFNRPFLMIIVPTDTQNIFFMSKVTNPKQA","Activity remaining, %",[1]; [12],7%
same,"Activity remaining, %",[1]; [13],1%
same,"Activity remaining, % of Prep-8 with 0.2 µM inhibitor, substrate Arg-pNA, pH 7.5 (% activity remaining)",[2],7
same,"Activity remaining, % of Prep-8 with 0.2 µM inhibitor, substrate Phe-pNA, pH 7.5 (% activity remaining)",[2],1
